Patent US5736518A, “Peptide compounds of (L) amino acids and ring molecules, and therapeutical applications thereof” (Polifarma S.p.A., priority 1990, dated 1998)
Square brackets hold non-standard residues; d marks the D form. Peptide text beside a SMILES is read from it. * marks the point of attachment. Trp(1-Me) = Cn1cc(C[C@H](N)C(=O)O)c2ccccc21; Tic = O=C(O)[C@@H]1Cc2ccccc2CN1; pGlu = O=C1CC[CH](C(=O)O)N1; Hyp = O=C(O)[CH]1C[CH](O)CN1; Phg = N[CH](C(=O)O)c1ccccc1; ΔPro = O=C(O)[C@@H]1C=CCN1; Pip = O=C(O)[C@@H]1CCCCN1; αMeP = C[C]1(C(=O)O)CCCN1; Cbz = O=C(OCc1ccccc1)*; Aze = O=C(O)[CH]1CCN1; Boc = CC(C)(C)OC(=O)*

Key:
[1] = tested on: spontaneously hyper-tensive rats (SHR from the company Charles River); assay: pressure tests in spontaneously hypertensive rats, awake and free to move; format: in vivo
From the text: (§1) In the following examples will first of all be given the data necessary for synthesis of the compounds according to the present invention. There will then be given data regarding their pharmacological activity, using methods widely known to be valid. In particular, for the pressure tests, spontaneously hyper-tensive rats were used (SHR from the company Charles River), operated in such a way as to enable pressure to be read even when the animals were awake and free to move. In order to evaluate the analgesic activity, the Hot Plate and Writhing Tests were used. For the anti-inflammatory effect the test of carraginine edema was used. Finally, for immuno-modulating activity the evaluation of the stimulation of growth of human lymphocytes in culture was resorted to, after the addition of specific antigens.

[2] = tested on: human lymphocytes in culture; assay: immuno-modulating activity: stimulation of growth of human lymphocytes in culture after addition of specific antigens; format: cell-based; settings: for immune response / immuno-stimulating activity (in words): human lymphocytes in culture, antigen not stated
From the text: as §1, with “antigens. The results obtained for each synthesized compound are given at the end of each example.” for “antigens.”

[3] = Hot Plate test (analgesic activity); format: in vivo
From the text: as §1, with “antigens. The results obtained for each synthesized compound are given at the end of each example.” for “antigens.”

[4] = analgesic activity, test not given (Hot Plate and Writhing Tests were used); format: in vivo; settings: test and dose not stated
From the text: as §1, with “antigens. The results obtained for each synthesized compound are given at the end of each example.” for “antigens.”

carraginine edema = assay: anti-inflammatory effect, test of carraginine edema; format: in vivo; settings: edema from carrageenin; dose not stated
From the text: as §1, with “antigens. The results obtained for each synthesized compound are given at the end of each example.” for “antigens.”

Structure (SMILES)	anti-hypertensive effect (in words) ([1]; dose not stated)	immune response / immuno-stimulating activity (in words) [2]	anti-inflammatory effect (in words) (carraginine edema)	also measured
CCOC(=O)[C@@H]1Cc2c([nH]c3ccccc23)CN1C(=O)[C@H](C)NC(=O)[C@@H]1CCCN1C(=O)OCc1ccccc1 [compound 1, Z-(L)-Pro-(L)-Ala-(S)-CytOEt]	–	–	–	anti-hypertensive effect (in words) ([1]; 4 mg/Kg i.p.): good anti-hypertensive effect; duration of the anti-hypertensive effect ([1]; 4 mg/Kg i.p.): a number of hours; reduction of pressure values ([1]; 4 mg/Kg i.p.): 15-20%; response of lymphocytes stimulated by phytohemoagglutinine (PHA) (in words) ([2]; PHA stimulated lymphocytes): increases the response of lymphocytes; pain killing effect under the Hot Plate test (in words) ([3]; 4 mg/Kg i.p.): slight pain killing effect
C[C@H](NC(=O)[C@@H]1CCCN1C(=O)OCc1ccccc1)C(=O)NCCc1c[nH]c2ccccc12 [compound 2, Z-(L)-Pro-(L)-Ala-TrpH]	comparable to that of compound 1	increased, but to a lesser extent than in the previous compound	–	–
C[C@H](NC(=O)[C@@H]1CCCN1C(=O)OCc1ccccc1)C(=O)N1CCc2c([nH]c3ccccc23)C1 [compound 3, Z-(L)-Pro-(L)-Ala-CytH]	–	–	–	anti-hypertensive effect (in words) ([1]; 8 mg/Kg i.p.): bland anti-hypertensive effect
COC(=O)[C@H](Cc1ccc(OC)cc1)NC(=O)[C@H](C)NC(=O)[C@@H]1CCCN1C(=O)OCc1ccccc1 [compound 4, Z-(L)-Pro-(L)-Ala-(L)-OmtOMe] (Cbz-Pro-Ala-Tyr(Me)-OMe)	–	slightly increased	–	anti-hypertensive effect (in words) ([1]; 8 mg/Kg i.v.): bland anti-hypertensive effect
COC(=O)[C@@H](NC(=O)[C@H](C)NC(=O)[C@@H]1CCCN1C(=O)OCc1ccccc1)c1ccccc1 [compound 5, Z-(L)-Pro-(L)-Ala-(L)-PhgOMe] (Cbz-Pro-Ala-[Phg]-OMe)	–	–	–	anti-hypertensive effect (in words) ([1]; 8 mg/Kg i.p.): bland anti-hypertensive effect; analgesic effect, Hot Plate test (in words) ([3]; dose not stated): moderate analgesic effect
COC[C@H](Cc1ccccc1)NC(=O)[C@H](C)NC(=O)[C@@H]1CCCN1C(=O)OCc1ccccc1 [compound 6, Z-(L)-Pro-(L)-Ala-(L)-Pme]	–	more consistent	rather weak	anti-hypertensive effect (in words) ([1]; 2 mg/Kg i.v.): good anti-hypertensive activity; reduction of pressure after one hour ([1]; 2 mg/Kg i.v., after one hour): approximately 25%; analgesic effect (in words) [4]: good analgesic activity
COC(=O)[C@H](Cc1cn(C)c2ccccc12)NC(=O)[C@H](C)NC(=O)[C@@H]1CCCN1C(=O)OCc1ccccc1 [compound 7, Z-(L)-Pro-(L)-Ala-(1)-Me-(L)-TrpOMe] (Cbz-Pro-Ala-[Trp(1-Me)]-OMe)	–	–	–	anti-hypertensive effect (in words) ([1]; 2 mg/Kg i.v.): good anti-hypertensive effect; reduction of pressure ([1]; 2 mg/Kg i.v.): 10%
COC(=O)[C@H](Cc1c[nH]c2ccccc12)NC(=O)[C@H](CC(C)C)NC(=O)c1ccco1 [compound 8, 2-Fur-(L)-Leu-(L)-TrpOMe]	–	strongly stimulated even with small doses of peptide	slight antiinflammatory effect	anti-hypertensive effect (in words) ([1]; 4 mg/Kg i.v.): slight anti-hypertensive effect
COC(=O)[C@H](Cc1c[nH]c2ccccc12)NC(=O)[C@H](CC(C)C)NC(=O)c1ccc[nH]1 [compound 9, 2-Pyrrolyl-(L)-Leu-(L)-TrpOMe]	slight effect on pressure	–	bland reduction of inflammatory responses	–
COC(=O)C(Cc1c[nH]c2ccccc12)NC(=O)C(CC(C)C)NC(=O)C1CCCN1C.Cl (stereo not drawn) [compound 10, N-Me-(L)-Pro-(L)-Leu-(L)-TrpOMe.HCl]	–	slightly increased	–	anti-hypertensive effect (in words) ([1]; 2 mg/Kg i.v.): excellent anti-hypertensive effect; reduction of pressure ([1]; 2 mg/Kg i.v.): 15-20%; analgesic effect (in words) [4]: low analgesic effect
COC(=O)[C@@H]1Cc2ccccc2CN1C(=O)[C@H](C)NC(=O)[C@@H]1CCCN1C(=O)OCc1ccccc1 [compound 11, Z-(L)-Pro-(L)-Ala(L)-CypOMe] (Cbz-Pro-Ala-[Tic]-OMe)	slight anti-hypertensive effect	–	moderate anti-inflammatory effect	–
COC(=O)C(Cc1c[nH]c2ccccc12)NC(=O)C(CC(C)C)NC(=O)C1(C)CCCN1C(=O)OC(C)(C)C (stereo not drawn) [compound 12, Boc-(L)-Mep-(L)-Leu-(L)-TrpOMe] (Boc-[αMeP]-Leu-Trp-OMe; configuration not given here)	bland anti-hypertensive effect	–	reduction of the inflammatory response	–
COC(=O)[C@H](Cc1c[nH]c2ccccc12)NC(=O)[C@H](CC(C)C)NC(=O)[C@@H]1C=CCN1C(=O)OC(C)(C)C [compound 13, Boc-.gradient.^3,4 -(L)-Pro-(L)-Leu-(L)-TrpOMe] (Boc-[ΔPro]-Leu-Trp-OMe)	slightly anti-hypertensive	slightly increases the immune response	–	–
COC(=O)[C@H](Cc1c[nH]c2ccccc12)NC(=O)[C@H](CC(C)C)NC(=O)[C@@H]1Cc2ccccc2N1C(=O)OCc1ccccc1 [compound 14, Z-(S)-Dhi-(L)-Leu-(L)-TrpOMe]	bland reduction of pressure	–	–	analgesic effect (in words) [4]: moderate analgesic effect
COC(=O)[C@H](Cc1c[nH]c2ccccc12)NC(=O)[C@H](CC(C)C)NC(=O)[C@@H]1CCCCN1C(=O)OCc1ccccc1 [compound 15, Z-(L)-Pip-(L)-Leu-(L)-TrPOMe] (Cbz-[Pip]-Leu-Trp-OMe)	–	slight increase in immune response	consistent	anti-hypertensive effect (in words) ([1]; 2 mg/Kg i.v.): good anti-hypertensive effect; reduction of pressure ([1]; 2 mg/Kg i.v.): up to 30%
COC(=O)C(Cc1c[nH]c2ccccc12)NC(=O)C(CC(C)C)NC(=O)C1CC(O)CN1C(=O)OCc1ccccc1 (stereo not drawn) [compound 16, Z-(L)-Hyp-(L)-Leu-(L)-TrpOMe] (Cbz-[Hyp]-Leu-Trp-OMe; configuration not given here)	bland anti-hypertensive action	–	–	analgesic effect (in words) [4]: modest analgesic effect
COC(=O)C(Cc1c[nH]c2ccccc12)NC(=O)C(CC(C)C)NC(=O)C1CCN1C(=O)OCc1ccccc1 [compound 17, Z-(S)-Aze-(L)-Leu-(L)-TrpOMe] (Cbz-[Aze]-Leu-Trp-OMe; configuration not given here)	slight anti-hypertensive effect	–	bland anti-inflammatory activity	–
COC(=O)[C@H](Cc1c[nH]c2ccccc12)NC(=O)[C@H](CC(C)C)NC(=O)[C@@H]1CCCO1 [compound 18, (S)-Tfc-(L)-Leu-(L)-TrpOMe]	bland anti-hypertensive effect	stimulates the immune response in a moderate manner	–	–
COC(=O)[C@H](Cc1c[nH]c2ccccc12)NC(=O)[C@H](CC(C)C)NC(=O)[C@@H]1CCC(=O)N1C(=O)OCc1ccccc1 [compound 19, Z-(L)-Pyr-(L)-Leu-(L)-TrpOMe]	slight anti-hypertensive effect	–	fair anti-inflammatory activity	–
COC(=O)[C@@H]1Cc2c([nH]c3ccccc23)CN1C(=O)[C@H](CC(C)C)NC(=O)[C@@H]1CCC(=O)N1C(=O)OCc1ccccc1 [compound 20, Z-(L)-Pyr-(L)-Leu-(S)-CytOMe]	bland anti-hypertensive activity	–	fair anti-inflammatory activity	–
COC(=O)[C@@H]1Cc2ccccc2CN1C(=O)[C@H](CC(C)C)NC(=O)[C@@H]1CCC(=O)N1C(=O)OCc1ccccc1 [compound 21, Z-(L)-Pyr-(L)-Leu-(S)-CyPOMe]	slight anti-hypertensive activity	good immuno-stimulating activity	–	–
COC(=O)C(NC(=O)CNC(=O)C1CCC(=O)N1)c1ccccc1 (stereo not drawn) [compound 22, (L)-Pyr-Gly-(L)-PhgOMe] ([pGlu]-Gly-[Phg]-OMe; configuration not given here)	–	appears to increase the immune response	very good	anti-hypertensive effect (in words) ([1]; 4 mg/Kg i.p.): excellent anti-hypertensive activity; reduction of pressure values ([1]; 4 mg/Kg i.p.): 20%
COC[C@H](Cc1ccccc1)NC(=O)CNC(=O)[C@@H]1CCC(=O)N1 [compound 23, (L)-Pyr-Gly-(L)-Pme]	–	good immuno-stimulating effect	–	anti-hypertensive effect (in words) ([1]; 8 mg/Kg i.p.): good anti-hypertensive activity; analgesic effect (in words) [4]: excellent analgesic effect
COC(=O)[C@@H]1Cc2ccccc2CN1C(=O)CNC(=O)[C@@H]1CCC(=O)N1 [compound 24, (L)-Pyr-Gly-(L)-CypOMe] ([pGlu]-Gly-[Tic]-OMe)	bland anti-hypertensive action	–	moderate anti-inflammatory action	–
COC(=O)[C@@H]1Cc2c([nH]c3ccccc23)CN1C(=O)[C@H](CC(C)C)NC(=O)[C@@H]1CCC(=O)N1 [compound 25, (L)-Pyr-(L)-Leu-(S)-CytOMe]	bland anti-hypertensive effect	–	–	analgesic effect (in words) [4]: weak analgesic activity
